Article PMC9663686, “Proline, hydroxyproline, and pyrrolidone carboxylic acid derivatives as highly efficient but reversible transdermal permeation enhancers” (Scientific Reports, 2022)
Marks after values point to notes of the source that are not given here.

What was measured:
[1] = test system: human skin; test: Transepidermal water loss (TEWL) of human skin in vitro, reversibility; details: for TEWL 1 h after the sample had been removed / TEWL 4 h after the sample had been removed / TEWL 8 h after the sample had been removed / TEWL 12 h after the sample had been removed / TEWL 24 h after the sample had been removed: 24-h application of 1% enhancer (1% Azone, 5% SDS) in 60% PG; for TEWL 1 h after the sample had been removed / TEWL 4 h after the sample had been removed / TEWL 8 h after the sample had been removed / TEWL 12 h after the sample had been removed / TEWL 24 h after the sample had been removed / TEWL before sample application (baseline): mean ± SEM; for reversibility of TEWL increase: after 24-h application, followed 24 h after removal
Source text: (§1) We further investigated the direct effects of the selected enhancers on the skin barrier assessed by TEWL and the electrical impedance of human skin in vitro. TEWL is a method commonly used in dermatology[38] to study, for example, the irritant potential of chemicals, skin barrier recovery, or effect of topical formulations, and permeation enhancers[17],[21],[41]–[44]. Electrical impedance measures the opposition of the skin to alternating electrical current and is inversely proportional to the flux of ions. Thus, increased TEWL or decreased impedance indicates a barrier impairment[45],[46]. Electrical impedance or conductance measurements have been used to screen new enhancers or assess the irritation potential of compounds[13],[15],[17],[21],[32],[44],[47]–[50]. Both TEWL and impedance can distinguish between reversible and irreversible effects of enhancers on skin permeability[17],[21],[40],[44],[51].
(§2) Human skin was mounted in Franz diffusion cells in the same way as for the permeation studies. After 1-h equilibration, basal TEWL and impedance values were recorded. Then, 1% enhancer in 60% PG, 60% PG as a negative control, 1% Azone in 60% PG, or 5% SDS in 60% PG as positive (irreversible) controls was applied on the skin (100 µl/cm^2) for 24 h. The residual sample was washed with PBS and gently blotted dry. At 1, 4, 8, 12, and 24 h after sample removal, TEWL, and impedance values were recorded. TEWL was measured using AquaFlux AF 200 (Biox Systems Ltd, London, UK), employing the condenser-chamber measurement method at 26 ± 1.0 °C and 43 ± 3% relative air humidity. Electrical impedance was measured by LCR meter 4080 (Conrad electronic, Hirschau, Germany, measuring range 20 Ω–10 MΩ, error at kΩ values < 0.5%) operated in parallel mode with an alternating frequency of 120 Hz, which was also used in our previous work[21],[44].
(§3) Samples were removed from the skin after 24 h, and TEWL and impedance values were recorded in predetermined time intervals (1, 4, 8, 12, and 24 h after sample removal). Data are presented as the means ± SEM; n ≥ 3. * statistically significant difference compared to the baseline value before the sample application at p < 0.05. ^+ statistically significant compared to the value 1 h after the sample removal at p < 0.05.^ ≠ statistically significant compared to the control (60% PG without enhancer) at the same time point, at p < 0.05.

[2] = test system: human skin; test: Electrical impedance of human skin in vitro, reversibility; details: for impedance 1 h after the sample had been removed / impedance 4 h after the sample had been removed / impedance 8 h after the sample had been removed / impedance 12 h after the sample had been removed / impedance 24 h after the sample had been removed: 24-h application of 1% enhancer (1% Azone, 5% SDS) in 60% PG; for impedance 1 h after the sample had been removed / impedance 4 h after the sample had been removed / impedance 8 h after the sample had been removed / impedance 12 h after the sample had been removed / impedance 24 h after the sample had been removed / impedance before sample application (baseline): mean ± SEM; for recovery of skin impedance after sample removal: after 24-h application, followed 24 h after removal
Source text: as §1, §2, §3

[3] = test system: human skin; test: Theophylline permeation through human skin in Franz diffusion cells with co-applied enhancer; type: in vitro ADME; details: for CDERMIS, theophylline concentration in dermis / CEPIDERMIS, theophylline concentration in epidermis / ER, enhancement ratio of theophylline flux (fold increase in flux over control): 1% enhancer co-applied with 5% TH in 60% PG; for CDERMIS, theophylline concentration in dermis / CEPIDERMIS, theophylline concentration in epidermis: after 48 h permeation, mean ± SEM; for ER, enhancement ratio of theophylline flux (fold increase in flux over control): human skin in vitro
Description: The prepared enhancers were applied at 1% in 60% aqueous propylene glycol (PG) to human skin in vitro; 60% PG was used as a negative control. PG was selected for its synergy with amphiphilic enhancers. Each model drug was co-applied with the enhancer at infinite dose.
(§4) Donor samples for reversibility and infrared studies contained 1% enhancer in 60% PG. All samples were thoroughly mixed, incubated at 32 °C for 24 h, and, if needed, carefully resuspended before applying on the skin. The effects of the studied enhancers on the solubility of model drugs were assessed as described previously.
(§5) The permeation-enhancing potencies of the prepared compounds were evaluated on human skin in Franz diffusion cells. Human skin was slowly thawed, cut into 2 × 2 cm pieces, fixed in Teflon holders with 1-cm^2 circular permeation areas, and mounted into Franz cells epidermal side up. The acceptor compartment (15.9 ± 0.1 ml) was filled with phosphate-buffered saline at pH 7.4 with 0.005% gentamicin (PBS) and stirred at 32 °C throughout the experiment. The skin integrity was checked by electrical impedance (any skin sample with the impedance < 10 kΩ was excluded). Then, 100 µl of a donor sample (infinite dose) was applied to the skin and covered with a glass slide. Acceptor phase samples (300 µl) were collected at predetermined time intervals for 48 h, to reach steady-state and were replaced by the same volume of fresh PBS. […] The drug concentrations were measured by HPLC (see supplementary data).
(§6) The flux of the model drug through the skin Jss (µg/cm^2/h) was calculated from the linear region of this plot. The enhancement ratio (ER) was calculated as the ratio of flux with and without an enhancer.
(§7) After the permeation experiment, the cells were dismounted, the skin was carefully washed with PBS, and the permeation area of the skin (1 cm^2) was punched off. After heating the skin fragments to 80 °C for 1 min, the epidermis (E) was peeled off the dermis (D), individually weighed and extracted by 1 and 2 ml, respectively, of an extraction solvent (identical to the mobile phase for the drug HPLC analysis, see supplementary data) for 24 h. The drug concentration was measured by HPLC (see supplementary data).

[4] = test system: human skin; test: Diclofenac permeation through human skin in Franz diffusion cells with co-applied enhancer; type: in vitro ADME; details: 1% enhancer co-applied with 3% DC in 60% PG; for CDERMIS, diclofenac concentration in dermis / CEPIDERMIS, diclofenac concentration in epidermis: after 48 h permeation, mean ± SEM; for ER, enhancement ratio of diclofenac flux: human skin in vitro
Description: as §4, §5, §6, §7

| Compound | CDERMIS, theophylline concentration in dermis [3] [µg/mg] | CEPIDERMIS, theophylline concentration in epidermis [3] [µg/mg] | ER, enhancement ratio of theophylline flux (fold increase in flux over control) [3] | CDERMIS, diclofenac concentration in dermis [4] [µg/mg] | CEPIDERMIS, diclofenac concentration in epidermis [4] [µg/mg] | ER, enhancement ratio of diclofenac flux [4] | also measured |
| --- | --- | --- | --- | --- | --- | --- | --- |
| CCCCCCCCCCCCN1CCCCCC1=O [Azone, N-dodecylazepan-2-one, reference compound] | – | – | – | – | – | – | TEWL 1 h after the sample had been removed [1]: 67.7 ± 1.3*^≠ g/m^2/h; TEWL 4 h after the sample had been removed [1]: 60.7 ± 1.7*^≠ g/m^2/h; TEWL 8 h after the sample had been removed [1]: 51.9 ± 1.6*^≠+ g/m^2/h; TEWL 12 h after the sample had been removed [1]: 48.8 ± 2.3*^≠+ g/m^2/h; TEWL 24 h after the sample had been removed [1]: 48.3 ± 1.4*^≠+ g/m^2/h; reversibility of TEWL increase [1]: lack of TEWL and impedance reversibility; TEWL before sample application (baseline) [1]: 28.2 ± 3.6 g/m^2/h; impedance 1 h after the sample had been removed [2]: 2.6 ± 0.4* kΩ×cm^2; impedance 4 h after the sample had been removed [2]: 7.8 ± 0.4*^≠ kΩ×cm^2; impedance 8 h after the sample had been removed [2]: 11.2 ± 0.2*^≠+ kΩ×cm^2; impedance 12 h after the sample had been removed [2]: 12.2 ± 0.4*^≠+ kΩ×cm^2; impedance 24 h after the sample had been removed [2]: 12.4 ± 0.8*^≠+ kΩ×cm^2; recovery of skin impedance after sample removal [2]: lack of TEWL and impedance reversibility; impedance before sample application (baseline) [2]: 25.1 ± 2.0 kΩ×cm^2 |
| CCCCCCCCCCCCOC(=O)C1CC(O)CN1C(C)=O (centres unmarked) [Hyp2] | 0.20 ± 0.03 | 2.87 ± 0.45 | 10 | 0.90 ± 0.08 | 9.22 ± 0.32 | 3 | – |
| CCCCCCCCCCCCOC(=O)C1CC(O)CN1C(=O)CC (centres unmarked) [Hyp3] | 0.25 ± 0.07 | 3.64 ± 0.85 | – | 0.97 ± 0.07 | 9.18 ± 0.62 | 4 | ER of epidermal TH concentration ([3]; 1% enhancer with 5% TH in 60% PG, over control): 1.9 |
| CCCCCCCCCCCCOC(=O)C1CC(O)CN1C(=O)CCC (centres unmarked) [Hyp4] | 0.39 ± 0.07 | 1.96 ± 0.56 | 16 | 1.01 ± 0.05 | 8.99 ± 1.23 | 4 | – |
| CCCCCCCCCCCCOC(=O)C1CC(O)CN1C(=O)CCCC (centres unmarked) [Hyp5] | 0.23 ± 0.03 | 1.45 ± 0.41 | ~19 | 1.02 ± 0.11 | 9.84 ± 1.22 | 5 | – |
| CCCCCCCCCCCCOC(=O)C1CCC(=O)N1C(C)=O (centres unmarked) [PCA2] | 0.22 ± 0.03 | 2.33 ± 0.26 | 12 | – | – | – | – |
| CCCCCCCCCCCCOC(=O)C1CCC(=O)N1C(=O)CC (centres unmarked) [PCA3] | 0.28 ± 0.04 | 2.99 ± 0.37 | 9 | – | – | – | – |
| CCCCCCCCCCCCOC(=O)C1CCC(=O)N1C(=O)CCC (centres unmarked) [PCA4] | 0.30 ± 0.14 | 2.53 ± 0.23 | 5 | – | – | – | – |
| CCCCCCCCCCCCOC(=O)C1CCC(=O)N1C(=O)CCCC (centres unmarked) [PCA5] | 0.23 ± 0.07 | 2.14 ± 0.44 | 5 | – | – | – | – |
| CCCCCCCCCCCCOC(=O)C1CCCN1C(=O)CCCC (centres unmarked) [Pro5] | 0.26 ± 0.02 | 0.83 ± 0.12 | 24 | 1.30 ± 0.25 | 8.51 ± 1.39 | – | – |
| CCCCCCCCCCCCOC(=O)C1CCCN1C(=O)CCCCC (centres unmarked) [Pro6] | 0.22 ± 0.03 | 1.14 ± 0.19 | 16 | 1.44 ± 0.31 | 10.26 ± 0.38 | – | – |
| CCCCCCCCCCCCOC(=O)C1CCCN1C(=O)CCCCCC (centres unmarked) [Pro7] | 0.26 ± 0.04 | 0.95 ± 0.09 | 15 | 1.30 ± 0.75 | 8.63 ± 3.11 | 5 | – |
| CCCCCCCCCCCCOS(=O)(=O)[O-].[Na+] [SDS, sodium dodecyl sulfate, reference compound] | – | – | – | – | – | – | TEWL 1 h after the sample had been removed [1]: 47.3 ± 2.2*^≠ g/m^2/h; TEWL 4 h after the sample had been removed [1]: 45.8 ± 4.4* g/m^2/h; TEWL 8 h after the sample had been removed [1]: 38.7 ± 3.1* g/m^2/h; TEWL 12 h after the sample had been removed [1]: 38.2 ± 2.6* g/m^2/h; TEWL 24 h after the sample had been removed [1]: 38.0 ± 2.3* g/m^2/h; reversibility of TEWL increase [1]: lack of TEWL and impedance reversibility; TEWL before sample application (baseline) [1]: 26.1 ± 2.9 g/m^2/h; impedance 1 h after the sample had been removed [2]: 1.9 ± 0.2* kΩ×cm^2; impedance 4 h after the sample had been removed [2]: 3.8 ± 0.2*^≠ kΩ×cm^2; impedance 8 h after the sample had been removed [2]: 5.0 ± 0.3*^≠ kΩ×cm^2; impedance 12 h after the sample had been removed [2]: 5.6 ± 0.3*^≠ kΩ×cm^2; impedance 24 h after the sample had been removed [2]: 6.4 ± 0.3*^≠ kΩ×cm^2; recovery of skin impedance after sample removal [2]: lack of TEWL and impedance reversibility; impedance before sample application (baseline) [2]: 26.7 ± 0.7 kΩ×cm^2 |
